Measurements taken from ChEMBL document CHEMBL1201862, “PubChem BioAssay data set” (2004).
Each block holds one molecule with its values, some of them ahead of it. The source made the active and inactive calls.

How the values were obtained:
Protein skinhead-1 = target: T1, Protein skinhead-1 (Caenorhabditis elegans, UniProt P34707); type: functional
T1 sequence (P34707 whole entry): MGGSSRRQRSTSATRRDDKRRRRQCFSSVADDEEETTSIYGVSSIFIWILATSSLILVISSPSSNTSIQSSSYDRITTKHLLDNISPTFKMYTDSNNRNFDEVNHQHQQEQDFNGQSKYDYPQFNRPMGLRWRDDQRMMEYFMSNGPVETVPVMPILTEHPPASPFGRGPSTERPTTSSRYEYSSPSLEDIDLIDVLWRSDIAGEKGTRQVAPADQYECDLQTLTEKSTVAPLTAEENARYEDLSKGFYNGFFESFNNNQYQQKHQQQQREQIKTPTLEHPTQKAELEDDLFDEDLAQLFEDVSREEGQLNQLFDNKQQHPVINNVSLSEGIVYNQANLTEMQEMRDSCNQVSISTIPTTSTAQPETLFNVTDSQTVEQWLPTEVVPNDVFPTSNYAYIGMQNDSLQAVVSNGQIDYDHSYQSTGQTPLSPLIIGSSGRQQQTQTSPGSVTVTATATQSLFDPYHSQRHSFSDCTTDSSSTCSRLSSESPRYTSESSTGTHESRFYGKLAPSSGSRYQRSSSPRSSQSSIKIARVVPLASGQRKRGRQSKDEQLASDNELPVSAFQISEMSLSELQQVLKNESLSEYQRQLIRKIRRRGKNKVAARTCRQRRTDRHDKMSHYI

[1] = target: Matrix metalloproteinase-14 (Homo sapiens, UniProt P50281); experiment: Dose Response confirmation of uHTS hits for a small molecule inhibitors of MT1-MMP activation in a fluorescence assay set 1.; type: functional
[2] = target: SWI/SNF-related matrix-associated actin-dependent regulator of chromatin subfamily A member 2 (Homo sapiens, UniProt P51531); experiment: Luminescence-based cell-based high throughput dose response assay to identify activators of the function of SWI/SNF related, matrix associated, actin dependent regulator of chromatin, subfamily a, member 2 (SMARCA2, BRM).; type: functional
SWI/SNF-related matrix-associated actin-dependent regulator of chromatin subfamily A member 2, sequence (P51531 whole entry): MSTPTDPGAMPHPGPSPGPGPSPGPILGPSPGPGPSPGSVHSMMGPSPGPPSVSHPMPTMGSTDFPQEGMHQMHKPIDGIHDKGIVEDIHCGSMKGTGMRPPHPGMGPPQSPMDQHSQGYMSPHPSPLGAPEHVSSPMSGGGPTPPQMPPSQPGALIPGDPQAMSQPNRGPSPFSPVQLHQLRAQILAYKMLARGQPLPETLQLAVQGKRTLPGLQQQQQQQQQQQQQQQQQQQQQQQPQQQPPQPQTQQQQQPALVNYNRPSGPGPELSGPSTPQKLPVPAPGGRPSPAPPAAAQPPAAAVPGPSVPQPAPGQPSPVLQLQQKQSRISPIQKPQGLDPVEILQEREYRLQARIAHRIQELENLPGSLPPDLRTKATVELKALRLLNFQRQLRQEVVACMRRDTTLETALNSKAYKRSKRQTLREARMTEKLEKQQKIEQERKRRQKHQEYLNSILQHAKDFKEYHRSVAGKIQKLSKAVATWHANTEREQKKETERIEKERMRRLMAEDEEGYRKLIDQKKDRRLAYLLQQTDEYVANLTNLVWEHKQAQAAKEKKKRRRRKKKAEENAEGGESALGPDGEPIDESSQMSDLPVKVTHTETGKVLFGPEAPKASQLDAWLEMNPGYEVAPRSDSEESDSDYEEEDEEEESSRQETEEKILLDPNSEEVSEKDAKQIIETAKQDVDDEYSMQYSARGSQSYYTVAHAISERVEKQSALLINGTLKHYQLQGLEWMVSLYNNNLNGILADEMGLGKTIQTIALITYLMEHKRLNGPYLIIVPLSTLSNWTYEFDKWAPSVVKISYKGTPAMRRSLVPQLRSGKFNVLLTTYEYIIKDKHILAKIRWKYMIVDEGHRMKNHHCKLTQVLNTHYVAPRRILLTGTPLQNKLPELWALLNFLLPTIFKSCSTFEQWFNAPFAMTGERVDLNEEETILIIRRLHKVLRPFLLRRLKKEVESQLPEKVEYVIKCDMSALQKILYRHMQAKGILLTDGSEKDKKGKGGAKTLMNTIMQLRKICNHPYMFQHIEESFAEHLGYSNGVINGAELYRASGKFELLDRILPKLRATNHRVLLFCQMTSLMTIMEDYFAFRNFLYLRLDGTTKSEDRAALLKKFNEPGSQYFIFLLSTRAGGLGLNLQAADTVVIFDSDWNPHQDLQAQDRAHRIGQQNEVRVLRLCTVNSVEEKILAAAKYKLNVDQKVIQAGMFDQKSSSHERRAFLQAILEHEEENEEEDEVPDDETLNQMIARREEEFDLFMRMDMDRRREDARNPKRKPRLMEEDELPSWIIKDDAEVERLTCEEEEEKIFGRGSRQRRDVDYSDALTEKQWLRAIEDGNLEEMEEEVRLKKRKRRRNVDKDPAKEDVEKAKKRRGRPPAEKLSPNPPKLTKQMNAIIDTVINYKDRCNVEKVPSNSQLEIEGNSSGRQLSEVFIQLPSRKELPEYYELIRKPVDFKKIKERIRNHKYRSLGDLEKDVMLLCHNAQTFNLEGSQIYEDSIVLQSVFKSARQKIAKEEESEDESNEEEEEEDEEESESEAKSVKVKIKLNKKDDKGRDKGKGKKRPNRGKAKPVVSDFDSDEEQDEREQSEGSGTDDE

[3] = Counterscreen for activators of the function of SWI/SNF related, matrix associated, actin dependent regulator of chromatin, subfamily a, member 2 (SMARCA2, BRM): Luminescence-based cell-based high throughput dose response assay to identify non-selective compounds using the VP16 reporter assay.; type: functional
[4] = target: T2, Probable nicotinate-nucleotide adenylyltransferase (Staphylococcus aureus (strain N315), UniProt P65502); type: functional, Staphylococcus aureus subsp. aureus N315; conditions: read-out: IC50_Mean;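 for IC50 Mean: confirmatory dose-response retesting of NadD inhibitor hits first found in an ultra-high-throughput screen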
[5] = target: T2, Probable nicotinate-nucleotide adenylyltransferase; type: functional, Staphylococcus aureus subsp. aureus N315
[6] = inhibition of ARNT PAS-B/TACC3 complex formation – biochemical, AlphaScreen, cherry-picked samples, confirmation (AID 651703); type: functional, Homo sapiens;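 note: His-tagged ARNT PAS-B domain paired with GST-TACC3 E629A dimer coactivator fragment; potency of inhibitors that break up the complex and lower AlphaScreen signal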
[7] = target: T3, Small ubiquitin-related modifier 1 (Homo sapiens, UniProt P63165); experiment: SUMO1 protein interaction blockers, potency – biochemical, fluorescence polarization, uHTS hits, dose response (AID 624382); type: functional; conditions: read-out: IC50_Mean
T3 sequence (P63165 whole entry): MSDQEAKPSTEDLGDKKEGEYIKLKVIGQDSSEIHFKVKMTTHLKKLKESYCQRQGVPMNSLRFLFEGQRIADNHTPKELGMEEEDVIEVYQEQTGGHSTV

[8] = target: T3, Small ubiquitin-related modifier 1; experiment: SUMO1 protein-protein binding blockers, potency – biochemical, FRET, dose response (AID 624383); type: functional; conditions: read-out: IC50_Mean
[9] = target: T4, Low molecular weight phosphotyrosine protein phosphatase (Homo sapiens, UniProt P24666); type: functional; conditions: read-out: IC50_Mean;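 note: Dose-response confirmation assay measuring inhibition of LMPTP enzyme activity by fluorescence intensity read-out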
T4 sequence (P24666 whole entry): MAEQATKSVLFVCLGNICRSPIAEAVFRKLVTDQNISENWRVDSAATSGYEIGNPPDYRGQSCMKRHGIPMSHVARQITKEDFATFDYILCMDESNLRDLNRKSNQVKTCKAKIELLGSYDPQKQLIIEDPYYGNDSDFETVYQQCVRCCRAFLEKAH

[10] = target: T5, Carboxy-terminal domain RNA polymerase II polypeptide A small phosphatase 1 (Homo sapiens, UniProt Q9GZU7); experiment: CTDSP1 inhibitors, concentration-response, biochemical, absorbance readout, ultra-high-throughput screen actives (AID 540297); type: functional
T5 sequence (Q9GZU7 whole entry): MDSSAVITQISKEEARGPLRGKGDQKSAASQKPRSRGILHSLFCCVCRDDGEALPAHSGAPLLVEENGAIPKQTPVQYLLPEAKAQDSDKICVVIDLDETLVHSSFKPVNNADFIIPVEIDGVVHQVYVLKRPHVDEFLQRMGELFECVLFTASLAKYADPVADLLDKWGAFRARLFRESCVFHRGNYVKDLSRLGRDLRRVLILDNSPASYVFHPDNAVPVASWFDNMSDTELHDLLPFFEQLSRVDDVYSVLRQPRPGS

Interleukin-8 [11] = target: T6, Interleukin-8 (Homo sapiens, UniProt P10145); experiment: Dose Response confirmation of uHTS small molecule hits for cystic fibrosis induced NFkb Inhibitors in a TNFa-induced IL8 counterscreen.; type: functional; conditions: read-out: IC50_Mean
T6 sequence (P10145 whole entry): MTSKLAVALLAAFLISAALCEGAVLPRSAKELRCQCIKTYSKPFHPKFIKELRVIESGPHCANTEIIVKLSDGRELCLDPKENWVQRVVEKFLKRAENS

Interleukin-8 [12] = target: T6, Interleukin-8; experiment: Dose Response confirmation of uHTS small molecule hits for cystic fibrosis induced NFkb Inhibitors in a PAF-induced IL8 counterscreen.; type: functional; conditions: read-out: IC50_Mean
[13] = target: T7, Heat shock factor protein 1 (Mus musculus, UniProt P38532); experiment: decrease of HSF1-responsive luciferase luminescence – cell-based, NIH3T3, dose retest, confirmation (AID 2382); type: functional;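 note: NIH3T3 fibroblasts with HSF1-driven luciferase reporter stressed by proteasome inhibitor MG132; luminescence from HSF1-driven luciferase expression after 8 hours of MG132 stress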
T7 sequence (P38532 whole entry): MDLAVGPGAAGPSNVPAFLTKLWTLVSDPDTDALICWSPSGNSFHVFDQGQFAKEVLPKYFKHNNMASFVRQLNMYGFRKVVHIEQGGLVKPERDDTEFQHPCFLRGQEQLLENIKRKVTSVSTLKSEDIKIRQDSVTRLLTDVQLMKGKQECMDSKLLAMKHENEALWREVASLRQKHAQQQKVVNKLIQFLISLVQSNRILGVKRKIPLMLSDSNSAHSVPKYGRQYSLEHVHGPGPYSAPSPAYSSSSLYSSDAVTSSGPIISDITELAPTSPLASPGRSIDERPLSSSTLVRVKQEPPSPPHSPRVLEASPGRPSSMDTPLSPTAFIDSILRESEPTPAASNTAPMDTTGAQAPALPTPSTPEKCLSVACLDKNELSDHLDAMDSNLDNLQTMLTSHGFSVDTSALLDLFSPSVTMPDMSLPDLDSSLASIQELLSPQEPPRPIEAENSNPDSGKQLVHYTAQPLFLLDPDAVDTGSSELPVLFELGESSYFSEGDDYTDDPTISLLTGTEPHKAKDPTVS

[14] = target: T8, Corticotropin-releasing factor receptor 2/Corticotropin-releasing factor-binding protein (Homo sapiens, UniProt P24387+Q13324); experiment: Dose Response confirmation of uHTS hits for small molecule antagonists of the CRF-binding protein and CRF-R2 receptor complex.; type: functional; conditions: read-out: IC50_Mean
T8 sequence (Q13324 whole entry): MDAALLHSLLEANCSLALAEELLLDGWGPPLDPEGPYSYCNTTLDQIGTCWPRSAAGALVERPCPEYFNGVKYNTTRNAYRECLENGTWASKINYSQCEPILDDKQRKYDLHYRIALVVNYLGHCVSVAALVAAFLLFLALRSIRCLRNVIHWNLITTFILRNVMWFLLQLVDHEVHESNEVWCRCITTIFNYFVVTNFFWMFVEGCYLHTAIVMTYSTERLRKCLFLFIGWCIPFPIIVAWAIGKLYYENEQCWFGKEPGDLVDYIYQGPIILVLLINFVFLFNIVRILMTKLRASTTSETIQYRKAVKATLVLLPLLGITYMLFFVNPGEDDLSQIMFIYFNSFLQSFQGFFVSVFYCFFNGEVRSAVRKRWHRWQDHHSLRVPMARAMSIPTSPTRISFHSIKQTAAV
T8 sequence (P24387 whole entry): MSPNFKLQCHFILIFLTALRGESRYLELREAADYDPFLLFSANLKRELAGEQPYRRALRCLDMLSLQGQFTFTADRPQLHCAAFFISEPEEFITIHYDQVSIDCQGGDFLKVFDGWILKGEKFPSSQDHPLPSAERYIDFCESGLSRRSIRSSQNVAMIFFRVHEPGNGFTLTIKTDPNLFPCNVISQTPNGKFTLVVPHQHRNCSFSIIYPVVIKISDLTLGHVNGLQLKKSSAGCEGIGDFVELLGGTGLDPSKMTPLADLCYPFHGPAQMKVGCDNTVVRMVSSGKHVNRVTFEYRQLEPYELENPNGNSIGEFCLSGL

[15] = target: T8, Corticotropin-releasing factor receptor 2/Corticotropin-releasing factor-binding protein; experiment: activators of CRF receptor 2 with binding protein – uHTS hits, confirmation (AID 602473); type: functional; conditions: read-out: EC50_Mean
[16] = blockers of CRF-binding protein–CRF-R2 complex – cell-based, uHTS hits, 384-well, dose response (AID 651639); type: functional, Homo sapiens; conditions: read-out: IC50_Mean
[17] = activation of miR-122 Renilla sensor silencing – cell-based, Huh7 psiCHECK-miR122, Renilla luciferase, cherry-picked, dose response (AID 651956); type: functional;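 note: huh7 hepatoma cells stably carrying a psiCHECK-2 miR-122 sensor plasmid; renilla luciferase signal reporting endogenous miR-122 activity after 48 h compound exposure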
[18] = target: T9, Methionyl-tRNA synthetase, putative (Trypanosoma brucei brucei, UniProt Q38C91); type: functional, Trypanosoma brucei brucei strain 927/4 GUTat10.1
T9 sequence (Q38C91 whole entry): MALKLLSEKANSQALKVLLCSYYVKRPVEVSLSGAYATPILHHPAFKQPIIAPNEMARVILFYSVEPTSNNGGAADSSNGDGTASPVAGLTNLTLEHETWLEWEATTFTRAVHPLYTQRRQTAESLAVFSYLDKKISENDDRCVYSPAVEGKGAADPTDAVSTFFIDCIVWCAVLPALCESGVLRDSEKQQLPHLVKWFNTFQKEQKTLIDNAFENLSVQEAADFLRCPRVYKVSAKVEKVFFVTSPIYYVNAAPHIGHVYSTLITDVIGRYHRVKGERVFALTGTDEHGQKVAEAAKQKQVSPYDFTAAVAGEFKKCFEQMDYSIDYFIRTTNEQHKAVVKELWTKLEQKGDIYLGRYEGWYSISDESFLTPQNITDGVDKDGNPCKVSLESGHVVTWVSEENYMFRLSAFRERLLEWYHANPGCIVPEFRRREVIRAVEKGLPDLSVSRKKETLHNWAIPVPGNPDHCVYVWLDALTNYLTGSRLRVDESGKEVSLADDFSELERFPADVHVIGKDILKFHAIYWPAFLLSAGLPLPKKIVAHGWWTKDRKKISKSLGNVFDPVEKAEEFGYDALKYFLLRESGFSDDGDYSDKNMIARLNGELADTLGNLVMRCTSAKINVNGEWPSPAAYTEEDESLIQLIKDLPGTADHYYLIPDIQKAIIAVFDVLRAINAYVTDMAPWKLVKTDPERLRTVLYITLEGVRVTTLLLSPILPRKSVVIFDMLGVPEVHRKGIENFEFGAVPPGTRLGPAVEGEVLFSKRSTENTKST

[19] = Counterscreen for inhibitors of Trypanosoma brucei methionyl tRNA synthetase (MetRS): Luminescence-based cell-based high throughput dose response assay to identify compounds that are cytotoxic to Jurkat human T lymphocyte cells.; type: functional
[20] = target: T9, Methionyl-tRNA synthetase, putative; type: functional, Trypanosoma brucei brucei strain 927/4 GUTat10.1; remark: listed apart in the source

IC50 (Protein skinhead-1): > 100 µM (inactive) | IC50 [1]: 46.5 µM (inactive)
SMILES: O=C(NNc1c2ccccc2nc2ccccc12)c1ccc(Cl)cc1

SMILES: CCc1c(C)c2ccc(OC3CCCCC3=O)cc2oc1=O (stereo not drawn)
EC50 [2]: > 91.2 µM (inactive) | EC50 [3]: > 91.2 µM (inactive)

IC50 [4]: 52.2 µM (active) | IC50 [5]: 13.7 µM (active)
SMILES: O=C(CN1c2ccccc2Sc2ccccc21)NNC(=S)Nc1ccc(Cl)cc1Cl

SMILES: CCN(CC)C(=O)CSc1nnc(-c2ccccn2)n1-c1ccc(C)c(C)c1
AC50 [6]: 92.4 µM (active)

SMILES: O=C(Nc1ccc2oc(-c3ccncc3)nc2c1)c1ccc2c(c1)OCO2
IC50 [7]: > 66.6 µM (inactive) | IC50 [8]: 7.12 µM (active) | IC50 [9]: 7.98 µM (active)

IC50 [4]: 23.8 µM (active) | IC50 [5]: 5.34 µM (active)
SMILES: CCOc1ccc(C(=O)N/N=C/c2ccc(-c3ccc(S(=O)(=O)Nc4ncccn4)cc3)o2)cc1

SMILES: COC(=O)c1ccc(C(=O)Nc2ccc3c(c2)C(=O)NC3=O)cc1
IC50 [10]: 6.87 µM (active) | IC50 [7]: > 66.6 µM (inactive) | IC50 [8]: 5.19 µM (active)

IC50 (Interleukin-8 [11]): 39.9 µM (inactive) | IC50 (Interleukin-8 [12]): 4.72 µM (active) | EC50 [13]: 2.79 µM (active)
SMILES: CCN1CCN(Cc2ccc(NC(=O)c3ccc(C)c(NC(=O)c4cccc5[nH]ccc45)c3)cc2C(F)(F)F)CC1

IC50 [14]: 33.8 µM (active) | EC50 [15]: > 53 µM (inactive) | IC50 [16]: > 20 µM (inactive)
SMILES: Cc1noc(C)c1COC(=O)Cc1ccc(Cl)c(Cl)c1

SMILES: COCCCn1c(-c2ccc(OC)cc2)cc(C(=O)NC2CCCCCCC2)c1C
IC50 [14]: 3.95 µM (active) | EC50 [15]: > 53 µM (inactive) | IC50 [16]: 11.5 µM (active)

SMILES: c1ccc(-n2nnnc2NCCc2c[nH]c3ccccc23)cc1
AC50 [17]: 9.93 µM (active)

SMILES: O=C(CSc1nc2ccccc2[nH]1)Nc1nc(-c2ccc(Br)cc2)cs1
IC50 [18]: 85.4 µM (inactive) | IC50 [19]: 55.6 µM (inactive) | IC50 [20]: 90.6 µM (inactive)
